Where “and” joins values, the source holds several entries; their conditions need not be identical. Equal values may be shown once. Entries after “also recorded” stand apart in the source; their conditions may differ. Read-outs that look alike come from different tables or passages of the source.
Legend:
[1] = test system: mouse pancreatic islets; test: Glucose-stimulated insulin secretion; format: cell-based; conditions: for IC50: Mus musculus, Pancreatic islet, 1.5 h
[2] = test system: INS-1E cells; test: Glucose-stimulated insulin secretion; format: cell-based, rat
[3] = test system: α2A-AR KO INS-1E-derived cell line; test: GSIS in α2A-AR knockout INS-1E-derived cell line; format: cell-based, rat
[4] = target: T1, D2R (Homo sapiens, UniProt P14416); test: Radioligand competition binding, [3H]-N-methylspiperone, HEK-293 membranes
Target sequence in this assay (P14416 whole entry): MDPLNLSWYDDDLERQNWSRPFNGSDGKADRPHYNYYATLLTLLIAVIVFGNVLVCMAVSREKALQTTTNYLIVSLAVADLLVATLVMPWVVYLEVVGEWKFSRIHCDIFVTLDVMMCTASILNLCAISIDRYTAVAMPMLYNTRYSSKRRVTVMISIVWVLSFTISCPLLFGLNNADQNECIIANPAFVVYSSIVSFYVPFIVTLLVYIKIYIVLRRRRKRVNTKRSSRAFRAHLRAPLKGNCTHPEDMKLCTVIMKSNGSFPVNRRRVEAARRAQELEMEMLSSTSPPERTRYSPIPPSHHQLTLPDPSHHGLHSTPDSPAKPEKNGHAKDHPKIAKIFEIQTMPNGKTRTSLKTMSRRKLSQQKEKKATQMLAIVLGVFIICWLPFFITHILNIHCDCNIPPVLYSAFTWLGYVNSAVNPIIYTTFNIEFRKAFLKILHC

[5] = test system: mouse islets; test: Glucagon secretion from mouse islets; format: cell-based; conditions: 25 mM glucose, 1 h
[6] = test system: human islets; test: Glucagon secretion from human islets; format: cell-based; conditions: 25 mM glucose, 1 h
[7] = test system: human islets; test: Insulin secretion from human islets; format: cell-based; conditions: 10 pM and 100 pM, versus vehicle
[8] = test system: INS-1E cells; test: HTRF cAMP assay in INS-1E cells; format: cell-based, rat; conditions: for Emax, inhibition of cAMP production: normalized to DA's efficacy in parental INS-1E
[9] = test system: α2A-AR KO INS-1E-derived cell line; test: HTRF cAMP assay in α2A-AR KO INS-1E-derived cells; format: cell-based, rat
[10] = target: T2, α2A-AR (Rattus norvegicus, UniProt P22909); test: cell-based; conditions: HEK-293T
T2 sequence (P22909 1-465): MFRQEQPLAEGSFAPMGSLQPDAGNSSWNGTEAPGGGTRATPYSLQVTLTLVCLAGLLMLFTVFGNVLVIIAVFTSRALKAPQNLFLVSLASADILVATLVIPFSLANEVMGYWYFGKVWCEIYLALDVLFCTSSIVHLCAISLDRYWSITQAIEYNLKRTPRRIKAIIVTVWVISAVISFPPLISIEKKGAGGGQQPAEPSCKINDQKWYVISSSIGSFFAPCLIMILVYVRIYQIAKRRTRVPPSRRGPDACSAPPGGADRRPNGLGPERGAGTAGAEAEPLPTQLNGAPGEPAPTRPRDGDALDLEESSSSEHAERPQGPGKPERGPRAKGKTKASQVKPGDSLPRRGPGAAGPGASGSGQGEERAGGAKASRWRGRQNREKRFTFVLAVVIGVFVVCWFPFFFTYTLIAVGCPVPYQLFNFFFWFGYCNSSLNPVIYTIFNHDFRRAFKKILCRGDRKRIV

[11] = target: T2, α2A-AR; format: cell-based; conditions: nanoBRET
[12] = target: T1, D2R; test: cell-based
Target sequence in this assay (P14416 whole entry): as the sequence (P14416 whole entry) above
Target sequence in this assay (P32121 whole entry partner): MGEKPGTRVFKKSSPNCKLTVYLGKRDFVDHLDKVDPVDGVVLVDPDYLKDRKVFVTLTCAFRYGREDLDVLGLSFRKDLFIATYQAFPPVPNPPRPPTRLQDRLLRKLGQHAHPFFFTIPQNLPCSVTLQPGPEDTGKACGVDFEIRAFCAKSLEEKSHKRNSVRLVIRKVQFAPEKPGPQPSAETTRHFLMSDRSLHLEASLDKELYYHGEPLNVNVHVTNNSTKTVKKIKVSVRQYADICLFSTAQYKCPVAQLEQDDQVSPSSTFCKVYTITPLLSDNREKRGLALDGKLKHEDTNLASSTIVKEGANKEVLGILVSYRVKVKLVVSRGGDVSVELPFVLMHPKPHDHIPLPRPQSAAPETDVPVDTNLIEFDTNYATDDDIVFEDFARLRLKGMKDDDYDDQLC

[13] = target: T2, α2A-AR; format: cell-based; conditions: nanoBRET; remark: listed apart in the source
[14] = test system: α2A-AR; test: α2A-AR internalization; format: cell-based; conditions: data not shown
[15] = target: T1, D2R
Target sequence in this assay (P14416 whole entry): as the sequence (P14416 whole entry) above

[16] = target: T1, D2R; conditions: nanoBRET
Target sequence in this assay (P14416 whole entry): as above

[17] = test system: β1-AR; conditions: ref Millan et al., 2002; cited from earlier work
[18] = target: T1, D2R; test: cell-based; conditions: for EC50: nanoBRET; for Emax: HEK-293T
Target sequence in this assay (P14416 whole entry): as above

[19] = target: T1, D2R; conditions: cited from earlier work
Target sequence in this assay (P14416 whole entry): as above
Target sequence in this assay (P32121 whole entry partner): as the sequence (P32121 whole entry partner) above

[20] = percentage of recruitment relative to DA
[21] = EC50, Gαi2 recruitment to D2R, Gαi2
[22] = EC50, Gαi3 recruitment to D2R, Gαi3
[23] = EC50, GαoA recruitment to D2R, GαoA

For CC(C)C[C@H]1C(=O)N2CCC[C@H]2[C@]2(O)O[C@](NC(=O)[C@@H]3C=C4c5cccc6[nH]c(Br)c(c56)C[C@H]4N(C)C3)(C(C)C)C(=O)N12 [Bromocriptine], the IC50 ([1]; read-out: IC50, inhibition of GSIS) was 15.8 nM, the IC50 ([1]; read-out: pIC50, inhibition of GSIS (converted)) was 15.8 nM and the “effect on insulin secretion” value ([1]; mouse islets, picomolar concentrations) was “insufficient to modify insulin secretion”. For the same compound, the “decrease of efficacy at reducing GSIS versus bromocriptine alone” value ([2]; co-treatment with sulpiride (100 nM)) was 66.7%, the “reduction of efficacy of GSIS inhibition versus bromocriptine alone” value ([2]; co-treatment with yohimbine (100 nM)) was 66.5% and the IC50 ([2]; read-out: IC50, inhibition of GSIS, INS-1E, 20 mM glucose, 90 min) was 14 nM. For the same compound, the IC50 ([3]; read-out: IC50, inhibition of GSIS, α2A-AR KO INS-1E-derived cells) was 6.67 nM, the “reduction of efficacy of GSIS inhibition versus parental INS-1E cells” value ([3]; α2A-AR KO) was 80.6% and the Ki [4] was 43.2 nM. The “decrease in secreted glucagon” value ([5]; 10 pM) was 26.7%, the “decrease in secreted glucagon” value ([5]; 100 pM) was 29.7% and the “decrease in secreted glucagon” value ([6]; 10 pM) was 30.8%. For the same compound, the “decrease in secreted glucagon” value ([6]; 100 pM) was 36.7%, the “effect on insulin secretion” value [7] was “not significantly altered; also recorded: did not significantly alter” and the “Emax, inhibition of cAMP production” value [8] was 35.10 [33.09–38.47] % DA. For the same compound, the “Emax, inhibition of cAMP production” value ([8]; listed as bromocriptine) was 35.1 % DA, the IC50 ([8]; read-out: IC50, inhibition of cAMP production, forskolin 5 μM, 1 h) was 10.3 nM and the “loss of potency in decreasing cAMP by α2-AR KO” value ([9]; KO versus unmodified cells) was about 120 fold. For the same compound, the IC50 ([9]; read-out: IC50, inhibition of cAMP production, α2A-AR KO) was 1200 nM, the “Emax, inhibition of cAMP production” value ([9]; α2A-AR KO, normalized to DA's efficacy in parental INS-1E) was 56.28 [5.32–107.26] % DA and the Emax ([10]; read-out: Emax, Gαi1 recruitment to α2A-AR) was 15.4%. For the same compound, the Emax ([10]; read-out: Emax, Gαi2 recruitment to α2A-AR) was 43.8%, the Emax ([10]; read-out: Emax, Gαi3 recruitment to α2A-AR) was 12.7% and the Emax ([10]; read-out: Emax, GαoA recruitment to α2A-AR) was 43%. The Emax ([10]; read-out: Emax, GαoB recruitment to α2A-AR) was 40.3%, the Emax ([10]; read-out: Emax, Gαz recruitment to α2A-AR) was 21.2% and the “β-arrestin2 recruitment to α2A-AR” value [11] was “does not result in measurable recruitment; also recorded: Neither bromocriptine nor DA stimulation of α2A-AR caused significant β-arrestin2 receptor recruitment”. The EC50 [12] was 286 nM, the Emax ([12]; read-out: Emax, β-arrestin2 recruitment to D2R) was 60.9% and the “β-arrestin1 recruitment to α2A-AR” value [13] was “negligible recruitment”. The “internalization of α2A-AR following stimulation” value [14] was “no detectable internalization”, the “higher potency than DA, Gαi1 recruitment to D2R” value ([15]; EC50 ratio versus DA) was 4.5 fold and the “higher potency than NE, Gαi1 recruitment to D2R” value ([15]; EC50 ratio versus NE) was 47.2 fold. The “Emax, Gαi1 recruitment to D2R” value [15, 20] was 60.03 [46.83–73.23] %, the “Emax, GαoA recruitment to D2R” value [15, 20] was 109.13 [71.26–147.01] % and the “Emax, GαoB recruitment to D2R” value [15, 20] was 96.05 [65.07–127.03] %. For the same compound, the “Emax, Gαz recruitment to D2R” value [15, 20] was 66.51 [20.68–112.34] %, the “β-arrestin1 recruitment to D2R” value [16] was “negligible recruitment” and the “affinity for β1-AR, lower compared with D2R” value [17] was about 120 fold. For the same compound, the EC50 ([18]; EC50, Gαi1 recruitment to D2R, Gαi1) was 104 nM, the EC50 [18, 21] was 21.6 nM and the EC50 [18, 22] was 84.3 nM. The EC50 [18, 23] was 0.0767 nM and 0.08 nM, the EC50 ([18]; EC50, Gαz recruitment to D2R, Gαz) was 4.3 nM and the Emax ([18]; read-out: Emax, Gαi2 recruitment to D2R, percentage of recruitment relative to DA) was 89.3%. It also gave an Emax ([18]; read-out: Emax, GαoA recruitment to D2R, percentage of recruitment relative to DA) of 109%, an Emax ([18]; read-out: Emax, GαoB recruitment to D2R, percentage of recruitment relative to DA) of 96.1% and an Emax ([18]; read-out: Emax, Gαz recruitment to D2R, percentage of recruitment relative to DA) of 66.5%. It also gave an EC50 ([18]; pEC50, GαoA recruitment to D2R, GαoA) of 0.0759 nM and an EC50 ([18]; pEC50, GαoB recruitment to D2R, GαoB) of 0.269 nM.

With NC[C@H](O)c1ccc(O)c(O)c1 [NE, norepinephrine] the “β-arrestin1 recruitment to α2A-AR” value [13] was “negligible recruitment”, the “β-arrestin1 recruitment to D2R” value [16] was “negligible recruitment” and the EC50 [18, 21] was 25.3 nM. It also gave an EC50 [18, 22] of 32600 nM, an EC50 [18, 23] of 3350 nM and an EC50 ([18]; EC50, GαoB recruitment to D2R, GαoB) of 139 nM. The “pEC50, β-arrestin2 recruitment to D2R” value [19] was 4.78 (16745.32) [3.62–5.93].
